One data set concerns dorsal raphe neurons. To be noted: systemic administration (I.V. and intragastric for metabolites), rats; cited from earlier work.
A further data set addresses T1, human 5-HT1A receptor (Homo sapiens, UniProt P08908).
T1 construct: expressed in transfected cells; host or cells: HEK293
T1 sequence (P08908 1-422): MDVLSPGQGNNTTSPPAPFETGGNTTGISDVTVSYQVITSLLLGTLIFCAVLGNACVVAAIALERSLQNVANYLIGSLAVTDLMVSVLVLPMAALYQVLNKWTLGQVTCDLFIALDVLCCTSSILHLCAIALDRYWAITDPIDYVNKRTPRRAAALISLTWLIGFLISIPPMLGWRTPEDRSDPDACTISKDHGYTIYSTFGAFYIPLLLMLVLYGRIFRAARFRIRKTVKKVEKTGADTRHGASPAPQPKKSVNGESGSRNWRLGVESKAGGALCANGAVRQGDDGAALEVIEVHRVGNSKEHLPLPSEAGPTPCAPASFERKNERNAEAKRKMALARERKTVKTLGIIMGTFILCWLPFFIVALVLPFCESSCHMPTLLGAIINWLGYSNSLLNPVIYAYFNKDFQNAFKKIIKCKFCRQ
The data set can be described thus: 5-HT1A receptor binding assay (3H-8-OH-DPAT).

The conditions of data set [1]: cited from earlier work.
For data set [2] the following is noted: cited from earlier work. This is another data set of the same source.
The nature of data set [3]: Previous laboratory testing for antianxiety properties. To be noted: laboratory methods developed for azapirone compounds.
Data set [4] can be described thus: Human pharmacokinetic study, multiple oral buspirone doses (25 days). The data set is classed as in vivo. From the text: The human dosing schedule is shown below. |______________________________________ […] | Interval BID Dose (mg) (Study Day) |______________________________________ […] | 3 15 15 […] | 5 30 25 |______________________________________
Data set [5] relates to rat pup ultrasonic vocalization. The data set is described as follows: Rat pup isolation-induced ultrasonic vocalization test. To be noted: for suppression of rat pup ultrasonic vocalization: 0.03-1 mg/kg, cold plate; for suppression of rat pup ultrasonic vocalization / ED50: sc, 30 min prior to test; for ED50: Rattus norvegicus, 0.5 h, doses refer to weight of the salt, read-out: ID50, dose predicted to reduce the number of calls by 50%; for anxiolytic activity in rat pup isolation-induced ultrasonic vocalization model (in words): in vivo. The data set is classed as in vivo, rat (Harlan Sprague-Dawley pups).

The subject of data set [6] is rat pup locomotor activity. The data set is described as follows: Locomotor activity (grid cell crossings) in the rat pup. The data set is classed as in vivo, rat (Harlan Sprague-Dawley pups). To be noted: sc; for locomotor activity (in words): 0.03-1 mg/kg.
Data set [7] in a line: Modified Vogel Conflict test. The data set is classed as in vivo. The conditions noted are these: earlier in-house testing. From the text:
Earlier in-house functional testing of BMY 28674 utilized an in vivo test method based on modification of the Vogel Conflict test, a simple reliable conflict procedure for testing antianxiety agents (see: Vogel, et al., Psychopharmacologia, (Berl.) 21, pp. 1-7, 1971). […] No useful antianxiety activity has been ascribed to BMY 28674 previously.

Structures are written as SMILES. Entries after “also recorded” stand apart in the source; their conditions may differ. Read-outs that look alike come from different tables or passages of the source.

Regarding `c1cnc(N2CCNCC2)nc1` [1-PP, 1-(2-pyrimidinyl)piperazine], the “inhibition of dorsal raphe neuronal firing” value in the data set on dorsal raphe neurons was “weak inhibition”. Moreover, the “affinity for human 5-HT1A receptor (in words)” value on human 5-HT1A receptor is “does not demonstrate binding”. The “anxiogenic properties in other behavioral testing paradigms” value in data set [1] (Cervo et al., 1988, Martin, 1991) is “displayed anxiogenic properties”. Also, the “antianxiety activity in certain other preclinical tests” value in [1] (U.S. Pat. No. 4,409,223) is reported as “some antianxiety activity”.

Turning to `Oc1cnc(N2CCNCC2)nc1` [5-hydroxy-1PP, reference compound], in data set [2] (in vivo), the “abundance as metabolite in human urine” value was “most”.

On to `O=C1CC2(CCCC2)C(O)C(=O)N1CCCCN1CCN(c2ncccn2)CC1` (stereo not drawn) [BMY 28674, 6-hydroxy-8-[4-[4-(2-pyrimidinyl)-piperazinyl]-butyl]-8-azaspiro[4.5]-7,9-dione], for which the “antianxiety activity in previous testing” value in data set [3] was “no anxiolytic activity was detected; also recorded: No significant antianxiety activity”. The “blood concentration relative to 1-PP” value in data set [4] (after oral buspirone, BMY 28674 vs 1-PP) is “several-fold greater; also recorded: several-fold higher”. In addition, the “blood levels compared to buspirone (in words)” value in data set [4] (oral buspirone BID, 12-hour dosing period) was “much higher and are sustained compared to buspirone”. In data set [5], the “suppression of rat pup ultrasonic vocalization” value is recorded as “dose-dependent suppression”, the ED50 is 0.13 mg/kg and the “anxiolytic activity in rat pup isolation-induced ultrasonic vocalization model (in words)” value is listed as “anxiolytic-like activity”. In addition, in [5] (vs suppression of motor activity), the “doses for anxiolytic activity relative to those required to suppress motor activity” value is “much lower doses”. Further, the “affinity for human 5-HT1A receptor (in words)” value on human 5-HT1A receptor is “binding affinity that approaches that of buspirone; also recorded: binding affinity closer to that of buspirone”. Also, the “abundance as metabolite in human urine” value in data set [2] (after buspirone) was “second most abundant metabolite”. The “locomotor activity (in words)” value in data set [6] (30 min prior to test) is “significantly impaired”. The ED50 in [6] (Rattus norvegicus, 0.5 h, 30 min prior to test, doses refer to weight of the salt, read-out: ID50 dose estimated to reduce locomotor activity) was 0.41 mg/kg. Besides, the “ratio of doses impairing locomotor activity to doses suppressing ultrasonic calls” value in data set [6] (locomotor vs ultrasonic calls, 30 min) is “approximately 3 fold”. Also, in data set [7], the “antianxiety response in the Vogel test” value is listed as “did not elicit an antianxiety response”.

With `O=C1CC2(CCCC2)CC(=O)N1CCCCN1CCN(c2ncccn2)CC1` [Buspirone, reference compound], the concentration at 2 h in data set [4] (human, in vivo, po) was less than 1 ng/mL. For the same molecule, the “inhibition of dorsal raphe neuronal firing” value with dorsal raphe neurons is “potently inhibits”. In data set [5], the “suppression of rat pup ultrasonic vocalization” value is recorded as “dose-dependent suppression”, the ED50 is 0.1 mg/kg and the “anxiolytic activity in rat pup isolation-induced ultrasonic vocalization model (in words)” value is reported as “anxiolytic-like activity”. The “locomotor activity (in words)” value in [6] (30 min prior to test) is “impaired”.
